Experimental findings from ChEMBL document CHEMBL2057087, “Design, synthesis and vasodilative activity of tanshinone IIA derivatives” (2012) are described below.

Assay [1] has as its system Aorta. The experiment in a line: Vasodilatory activity in Wistar rat thoracic aorta rings assessed as inhibition of norepinephrine hydrochloride-induced contraction at 1 X 10 '-4 M. It is filed as functional.
For assay [2], the system named is Aorta. The assay is described as follows: Vasodilatory activity in Wistar rat thoracic aorta rings assessed as inhibition of norepinephrine hydrochloride-induced contraction. The format is functional, tissue-based.

The structures appear in SMILES notation.

As a reminder, the inhibition is the change of the read-out against control, counted positive when it falls. `COc1ccc(CC(=O)OC2CCC(C)(C)c3ccc4c(c32)C(=O)C(=O)c2c(C)coc2-4)cc1` (stereo not given): the inhibition at 100 µM in the assay on Aorta [1] stood at 20.2%. For `Cc1coc2c1C(=O)C(=O)c1c-2ccc2c1C(OC(=O)c1ccccc1F)CCC2(C)C` (stereo not given), the inhibition at 100 µM in the assay with Aorta [1] came out at 21.8%. The inhibition result in the assay on Aorta [2] is “Dose-dependent effect”. Regarding `Cc1coc2c1C(=O)C(=O)c1c-2ccc2c1C(OC(=O)Cc1cccc(F)c1)CCC2(C)C` (stereo not given), the inhibition at 100 µM in the assay with Aorta [1] was -2.78%. With `Cc1coc2c1C(=O)C(=O)c1c-2ccc2c1C(OC(=O)c1cccc(F)c1)CCC2(C)C` (stereo not given), the inhibition at 100 µM in the assay on Aorta [1] was -3.59%. Same read-out and setting: next, `Cc1coc2c1C(=O)C(=O)c1c-2ccc2c1C(OC(=O)c1cccc(O)c1)CCC2(C)C` (stereo not given): 19.1%; `Cc1coc2c1C(=O)C(=O)c1c-2ccc2c1C(OC(=O)Cc1ccc(F)cc1)CCC2(C)C` (stereo not given): -13.3%; `Cc1coc2c1C(=O)C(=O)c1c-2ccc2c1C(OC(=O)c1ccc(F)cc1)CCC2(C)C` (stereo not given): -3.3%.

As to `COc1ccccc1CC(=O)OC1CCC(C)(C)c2ccc3c(c21)C(=O)C(=O)c1c(C)coc1-3` (stereo not given), in the assay with Aorta [1], the inhibition at 100 µM turned out to be 12.8%. Take `Cc1coc2c1C(=O)C(=O)c1c-2ccc2c1C(OC(=O)c1ccc(O)cc1)CCC2(C)C` (stereo not given): the inhibition at 100 µM in the assay with Aorta [1] amounted to 9.39%. As for `Cc1coc2c1C(=O)C(=O)c1c-2ccc2c1C(OC(=O)Cc1cccc(O)c1)CCC2(C)C` (stereo not given), the inhibition at 100 µM in the assay on Aorta [1] was -4.92%. The same measure, in the same setting: to `Cc1coc2c1C(=O)C(=O)c1c-2ccc2c1C(OC(=O)c1ccccc1)CCC2(C)C` (stereo not given) belongs -9.41%. As for `Cc1coc2c1C(=O)C(=O)c1c-2ccc2c1C(OC(=O)Cc1ccccc1)CCC2(C)C` (stereo not given), the inhibition at 100 µM in the assay with Aorta [1] was -17.8%. On the same count and under the same terms, next, `Cc1coc2c1C(=O)C(=O)c1c-2ccc2c1C(OC(=O)Cc1ccccc1O)CCC2(C)C` (stereo not given): -0.37%; `COc1ccccc1C(=O)OC1CCC(C)(C)c2ccc3c(c21)C(=O)C(=O)c1c(C)coc1-3` (stereo not given): 7.58%. Regarding `Cc1coc2c1C(=O)C(=O)c1c-2ccc2c1CCCC2(C)C` [TANSHINONE IIA], the inhibition at 100 µM with Aorta [1] stood at 1.86%. For the compound `COc1ccc(C(=O)OC2CCC(C)(C)c3ccc4c(c32)C(=O)C(=O)c2c(C)coc2-4)cc1` (stereo not given), in the assay with Aorta [1], the inhibition at 100 µM turned out to be 23.5%. Also, the inhibition entry with Aorta [2] was “Dose-dependent effect”. Take `COc1cccc(CC(=O)OC2CCC(C)(C)c3ccc4c(c32)C(=O)C(=O)c2c(C)coc2-4)c1` (stereo not given): the inhibition at 100 µM with Aorta [1] amounted to 29.4%. Further, in the assay with Aorta [2], the inhibition entry is “Dose-dependent effect”. Regarding `COc1cccc(C(=O)OC2CCC(C)(C)c3ccc4c(c32)C(=O)C(=O)c2c(C)coc2-4)c1` (stereo not given), the inhibition at 100 µM in the assay on Aorta [1] is -0.25%. Turning to `Cc1coc2c1C(=O)C(=O)c1c-2ccc2c1C(OC(=O)Cc1ccc(O)cc1)CCC2(C)C` (stereo not given), the inhibition at 100 µM in the assay on Aorta [1] was -1.67%.

As to `Cc1coc2c1C(=O)C(=O)c1c-2ccc2c1C(OC(=O)Cc1ccccc1F)CCC2(C)C` (stereo not given), the inhibition at 100 µM in the assay on Aorta [1] turned out to be 1.92%. Regarding `Cc1coc2c1C(=O)C(=O)c1c-2ccc2c1C(OC(=O)c1ccccc1O)CCC2(C)C` (stereo not given), in the assay with Aorta [1], the inhibition at 100 µM is 22.4%. In addition, the inhibition result with Aorta [2] is “Dose-dependent effect”.
